The record followed here is PubChem BioAssay (NCI).

Values joined by “and” are separate entries in the source; they are usually repeats but may differ in a detail not shown here. Identical values can stand only once.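 Briefly, cells in 96-well plates were exposed to five compound concentrations for 48 h, and endpoints were estimated by linear interpolation. At the GI50, growth is halved. TGI: total growth inhibition.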

The first assay concerns SF-268 CNS. Nature of the assay: DTP human tumour cell line panel, 48 h.
As to `O=C(Nc1ccc(C(F)(F)F)cc1[N+](=O)[O-])C(=O)C1NC(=S)NC1=O` (configuration not stated), the TGI (commonly the concentration at which net growth stops) is over 100 µM.
Consider `COC(=O)c1ccc2[nH]c(O)c(C(=Nc3ccc(N(C)C(=O)CN4CCN(C)CC4)cc3)c3ccc4c(c3)OCO4)c2c1`, for which the GI50 (as a rule, the concentration giving 50% growth inhibition) was 0.929 µM and the TGI came to 3.86 µM.
Regarding `N[C@H](C(=O)O)[C@@H]1CC(Cl)=NO1`, the GI50 was 10.2 µM and the TGI is over 848 µM.
Turning to `Oc1ccc2ccccc2c1N=Nc1cccc2ccccc12`, the concentration for total growth inhibition (TGI) was over 100 µM.
Consider `COc1ccc2c(c1)NC1=C(C(=O)OC1)C2c1cc(OC)c(OC)c(OC)c1` (configuration not stated), for which the GI50 was under 0.01 µM and the TGI is over 100 µM.
As to `NCCCNCCS`, the TGI was over 100 µM.
On the same count and under the same terms, for `COC(=O)C(=O)CC(=O)CCn1[nH]c(=O)c(Cl)c(Cl)c1=O` the value was over 100 µM.
With `Cn1c(Cl)c(/C=C2/C(=O)Nc3ccccc32)c2ccccc21`, the GI50 was 4.08 µM and the TGI is over 35.7 µM.
`O=C1C(=O)c2ccccc2C(O)=C1C(C1=C(O)c2ccccc2C(=O)C1=O)c1ccc(Cl)cc1` yielded a concentration for total growth inhibition (TGI) of 59.8 µM.
Still for that read-out and setting: for `Nc1ncnc2c1ncn2C1C=C(CO)C(O)C1O` (configuration not stated) the value was over 100 µM.

The next assay concerns SF-295 CNS. Nature of the assay: DTP human tumour cell line panel, 48 h.
Turning to `CN(c1ccc(NC(=O)Nc2c(Cl)cccc2Cl)cc1)c1ccnc(Nc2cccc(CS(C)(=O)=O)c2)n1`, the GI50 was 1.54 µM and the TGI was found to be 12.6 µM.
For the compound `CCCCCCCCCCCC(=O)OCCOCCOCCOCCOCCOC(=O)CCCCCCCCCCC`, the TGI was over 100 µM.
With `COc1ccc(C=O)cc1O[Si](C)(C)C(C)(C)C`, the TGI was over 100 µM.
Same read-out and setting: the value for `O=C1COc2cc(NC(=S)Nc3ccccc3)ccc2N1` was over 100 µM.
For the compound `CCCCCCCCn1ccc2cc(NC(=O)Cn3cc(CN4CCCCCC4)nn3)ccc21`, the GI50 is 1.74 µM and the TGI was 3.33 µM.
The compound `COCCOC(=O)C1=C(O)c2ccccc2S(=O)(=O)N1C` registered a TGI of over 100 µM.
Still for that read-out and setting: the value for `CNC(=O)OCc1nc(SSC(C)(C)C)n(C)c1COC(=O)NC` was 31.7 µM; that for `CC(C)C(O)(C(C)C)C(C)C` was over 100 µM; that for `O=C(Nc1ccc(Cl)cc1)C1C(=O)C(=O)N(c2ccc(Cl)cc2)C1=O` (configuration not stated) was over 100 µM.
As to `CCC[CH2][Sn]([CH2]CCC)([O]C(=O)CN)[O]C(=O)CN`, the GI50 is 34.5 µM and the TGI is over 100 µM.
Taken in the same sequence, the figures for `CC1(C)N=C(N)N=C(N)N1c1ccc(CCC(=O)Nc2ccc(S(=O)(=O)F)cc2)c(Cl)c1` were 1.09 µM and over 100 µM.
In turn, `O=C(Nc1ccc(C(F)(F)F)cc1[N+](=O)[O-])C(=O)C1NC(=S)NC1=O` (configuration not stated) registered a TGI of over 100 µM.
In the case of `COC(=O)c1ccc2[nH]c(O)c(C(=Nc3ccc(N(C)C(=O)CN4CCN(C)CC4)cc3)c3ccc4c(c3)OCO4)c2c1`, the GI50 is 0.754 µM and the TGI is 2.16 µM.
`N[C@H](C(=O)O)[C@@H]1CC(Cl)=NO1`: the GI50 was 7.59 µM and 2.63 µM; the TGI is over 908 µM.
Take `Oc1ccc2ccccc2c1N=Nc1cccc2ccccc12`: the concentration for total growth inhibition (TGI) was over 100 µM.
Consider `COc1ccc2c(c1)NC1=C(C(=O)OC1)C2c1cc(OC)c(OC)c(OC)c1` (configuration not stated), for which the GI50 was under 0.01 µM and the TGI was over 54.5 µM.
For the compound `NCCCNCCS`, the TGI is over 100 µM.
Same read-out and setting: the value for `COC(=O)C(=O)CC(=O)CCn1[nH]c(=O)c(Cl)c(Cl)c1=O` was over 100 µM.
For the compound `Cn1c(Cl)c(/C=C2/C(=O)Nc3ccccc32)c2ccccc21`, the concentration for 50% growth inhibition (GI50) was 0.223 µM and the TGI is 2.21 µM.
In turn, `O=C1C(=O)c2ccccc2C(O)=C1C(C1=C(O)c2ccccc2C(=O)C1=O)c1ccc(Cl)cc1` displayed a TGI of 13.8 µM.
Still for that read-out and setting: the value for `Nc1ncnc2c1ncn2C1C=C(CO)C(O)C1O` (configuration not stated) was over 100 µM.

A further assay deals with SNB-19 CNS. Nature of the assay: DTP human tumour cell line panel, 48 h.
As for `CN(c1ccc(NC(=O)Nc2c(Cl)cccc2Cl)cc1)c1ccnc(Nc2cccc(CS(C)(=O)=O)c2)n1`, the GI50 was 4.5 µM and the TGI is over 25 µM.
The compound `CCCCCCCCCCCC(=O)OCCOCCOCCOCCOCCOC(=O)CCCCCCCCCCC` displayed a TGI of over 100 µM.
Still for that read-out and setting: for `COc1ccc(C=O)cc1O[Si](C)(C)C(C)(C)C` the value was over 100 µM; for `O=C1COc2cc(NC(=S)Nc3ccccc3)ccc2N1`, over 100 µM.
Turning to `CCCCCCCCn1ccc2cc(NC(=O)Cn3cc(CN4CCCCCC4)nn3)ccc21`, the GI50 is 1.8 µM and the TGI stood at 3.46 µM.
Consider `COCCOC(=O)C1=C(O)c2ccccc2S(=O)(=O)N1C`, for which the TGI was over 100 µM.
On to `CNC(=O)OCc1nc(SSC(C)(C)C)n(C)c1COC(=O)NC`, for which the TGI amounted to 33.9 µM.
Same read-out and setting: for `CC(C)C(O)(C(C)C)C(C)C` the value was over 100 µM; for `O=C(Nc1ccc(Cl)cc1)C1C(=O)C(=O)N(c2ccc(Cl)cc2)C1=O` (configuration not stated), over 100 µM.
With `CCC[CH2][Sn]([CH2]CCC)([O]C(=O)CN)[O]C(=O)CN`, the GI50 is 45.5 µM and the TGI was over 100 µM.
For `CC1(C)N=C(N)N=C(N)N1c1ccc(CCC(=O)Nc2ccc(S(=O)(=O)F)cc2)c(Cl)c1` the same measures were 5.22 µM and over 100 µM.
Take `O=C(Nc1ccc(C(F)(F)F)cc1[N+](=O)[O-])C(=O)C1NC(=S)NC1=O` (configuration not stated): the TGI was over 100 µM.
On to `COC(=O)c1ccc2[nH]c(O)c(C(=Nc3ccc(N(C)C(=O)CN4CCN(C)CC4)cc3)c3ccc4c(c3)OCO4)c2c1`, for which the GI50 was 1.06 µM and the TGI was determined as 6.05 µM.
As to `N[C@H](C(=O)O)[C@@H]1CC(Cl)=NO1`, the GI50 is 16.8 µM and 5.14 µM; the TGI was over 661 µM.
`Oc1ccc2ccccc2c1N=Nc1cccc2ccccc12`: the TGI is over 100 µM.
Regarding `COc1ccc2c(c1)NC1=C(C(=O)OC1)C2c1cc(OC)c(OC)c(OC)c1` (configuration not stated), the concentration for 50% growth inhibition (GI50) was under 0.01 µM and the TGI was over 100 µM.
Regarding `NCCCNCCS`, the total growth inhibition concentration (TGI) is over 100 µM.
On the same count and under the same terms, for `COC(=O)C(=O)CC(=O)CCn1[nH]c(=O)c(Cl)c(Cl)c1=O` the value was over 100 µM.
For `Cn1c(Cl)c(/C=C2/C(=O)Nc3ccccc32)c2ccccc21`, the GI50 was 0.935 µM and the TGI came to 29.9 µM.
For the compound `O=C1C(=O)c2ccccc2C(O)=C1C(C1=C(O)c2ccccc2C(=O)C1=O)c1ccc(Cl)cc1`, the TGI came out at 41.8 µM.
The same measure, in the same setting: the value for `Nc1ncnc2c1ncn2C1C=C(CO)C(O)C1O` (configuration not stated) was over 100 µM.
